Where two headings read alike, the source gives them in different places.
Key:
HER2 = HER2 (Homo sapiens, UniProt P04626); assay: in vitro kinase assay (enzyme assay); format: biochemical; conditions: human recombinant enzyme; read-out: IC50 (Mean ± SD)
Method: (§1) To investigate the inhibitory effect of Compound (1) on HER2 enzyme activity, the mean±standard deviation (SD) of half-maximal inhibitory concentration (IC50) values of Compound (1) against human recombinant enzymes of HER2 and its mutants were determined by in vitro kinase assays (Table 1).

HER2 A775_G776insYVMA = HER2 A775_G776insYVMA (Homo sapiens, UniProt P04626, INS775YVMA); assay: in vitro kinase assay (enzyme assay); format: biochemical; conditions: human recombinant enzyme; read-out: IC50 (Mean ± SD)
Sequence of HER2 A775_G776insYVMA (P04626 with tags, fused parts or gaps INS775YVMA limits assumed): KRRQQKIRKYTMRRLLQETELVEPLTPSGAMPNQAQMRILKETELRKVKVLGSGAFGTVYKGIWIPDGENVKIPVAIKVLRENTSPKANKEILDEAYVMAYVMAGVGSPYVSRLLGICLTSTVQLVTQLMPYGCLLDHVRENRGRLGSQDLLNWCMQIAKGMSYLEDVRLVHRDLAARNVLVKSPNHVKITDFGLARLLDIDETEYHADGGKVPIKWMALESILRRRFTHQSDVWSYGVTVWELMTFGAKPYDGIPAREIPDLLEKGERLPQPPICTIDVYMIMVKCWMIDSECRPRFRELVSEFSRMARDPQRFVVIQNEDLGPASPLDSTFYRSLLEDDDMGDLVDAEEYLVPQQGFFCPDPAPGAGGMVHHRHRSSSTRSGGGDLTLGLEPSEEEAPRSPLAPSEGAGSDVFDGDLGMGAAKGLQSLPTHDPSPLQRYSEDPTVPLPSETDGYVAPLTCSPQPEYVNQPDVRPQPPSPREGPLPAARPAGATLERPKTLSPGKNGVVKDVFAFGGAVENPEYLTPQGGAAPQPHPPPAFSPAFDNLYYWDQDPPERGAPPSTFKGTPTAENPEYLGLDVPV
Method: as §1

HER2 V777L = HER2 V777L (Homo sapiens, UniProt P04626, V777L); assay: in vitro kinase assay (enzyme assay); format: biochemical; conditions: human recombinant enzyme; read-out: IC50 (Mean ± SD)
Sequence of HER2 V777L (P04626 23-1255 V777L): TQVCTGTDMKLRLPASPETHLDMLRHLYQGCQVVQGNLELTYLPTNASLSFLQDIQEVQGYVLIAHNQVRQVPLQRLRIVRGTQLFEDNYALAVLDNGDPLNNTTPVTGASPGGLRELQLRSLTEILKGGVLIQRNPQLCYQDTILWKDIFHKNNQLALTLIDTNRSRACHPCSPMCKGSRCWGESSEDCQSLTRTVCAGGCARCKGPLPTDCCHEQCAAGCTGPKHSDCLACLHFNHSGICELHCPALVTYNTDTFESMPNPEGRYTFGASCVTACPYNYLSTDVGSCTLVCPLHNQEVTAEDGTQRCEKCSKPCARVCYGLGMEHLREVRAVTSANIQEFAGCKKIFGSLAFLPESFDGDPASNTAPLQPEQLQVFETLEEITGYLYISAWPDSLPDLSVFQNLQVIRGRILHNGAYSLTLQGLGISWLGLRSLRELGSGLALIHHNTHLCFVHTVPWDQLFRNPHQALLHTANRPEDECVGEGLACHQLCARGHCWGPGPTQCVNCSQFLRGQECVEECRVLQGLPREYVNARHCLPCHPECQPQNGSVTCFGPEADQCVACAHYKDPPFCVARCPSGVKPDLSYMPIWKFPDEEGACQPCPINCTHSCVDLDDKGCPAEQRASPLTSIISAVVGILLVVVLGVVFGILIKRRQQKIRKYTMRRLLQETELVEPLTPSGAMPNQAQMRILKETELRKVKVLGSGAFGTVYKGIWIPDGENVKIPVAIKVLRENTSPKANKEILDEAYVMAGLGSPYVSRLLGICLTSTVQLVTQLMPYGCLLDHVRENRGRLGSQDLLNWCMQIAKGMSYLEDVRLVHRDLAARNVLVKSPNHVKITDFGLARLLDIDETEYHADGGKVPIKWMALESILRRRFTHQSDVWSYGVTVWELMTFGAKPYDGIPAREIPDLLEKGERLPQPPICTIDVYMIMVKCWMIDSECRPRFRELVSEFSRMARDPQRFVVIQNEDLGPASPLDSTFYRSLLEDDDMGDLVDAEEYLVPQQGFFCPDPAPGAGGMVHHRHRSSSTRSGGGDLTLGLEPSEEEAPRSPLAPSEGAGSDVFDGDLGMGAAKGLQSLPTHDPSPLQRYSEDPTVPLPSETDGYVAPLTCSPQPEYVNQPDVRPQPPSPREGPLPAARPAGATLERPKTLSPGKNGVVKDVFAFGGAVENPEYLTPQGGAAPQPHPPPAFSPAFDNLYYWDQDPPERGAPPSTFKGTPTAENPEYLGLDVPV
Method: as §1

[1] = test system: MCF10A_HER2/insYVMA cells; assay: growth inhibitory effect in human cancer cell lines (GI50); format: cell-based; conditions: engineered to express HER2 A775_G776insYVMA
A-431 cells = assay: as above; format: cell-based; conditions: wild-type EGFR gene amplification
Description: (§2) Wild-type EGFR gene amplification without HER2 amplification has been observed in A-431 cells. HCC827 cells (lung cancer) have been reported as harboring an EGFR activating mutation (DelE746_A750). NCI-H1975 cells (lung cancer) have been reported as having activating and acquired EGFR resistance mutations (L858R and T790M).

HCC827 cells = assay: as above; format: cell-based; conditions: lung cancer, EGFR DelE746_A750
Description: as §2

NCI-H1975 cells = assay: as above; format: cell-based; conditions: lung cancer, EGFR L858R and T790M
Description: as §2

[2] = test system: MCF10A_HER2/insYVMA_v human mammary epithelial xenografts; assay: antitumor effect in nude mice bearing MCF10A_HER2/insYVMA_v xenografts; format: in vivo; conditions: for T/C ratio of the mean tumor volume: Day 15
Method: The antitumor effect of Compound (1) was evaluated in a nude mouse xenograft model of MCF10A_HER2/insYVMA_v. MCF10A_HER2/insYVMA_v was established as stably growing cells in vivo derived from MCF10A HER2/insYVMA (a human mammary epithelial cell line engineered to express the HER2 exon 20 insertion mutation A775_G776insYVMA) xenografts subcutaneously transplanted into nude mice. Compound (1) suspensions (using 0.5% w/v HPMC as vehicle) were administered orally once daily to mice at doses of 7.8, 12.5, or 20.0 mg/kg/day for 14 days. The control group received 0.5% weight per volume (w/v) hydroxypropyl methylcellulose (HPMC) solution orally once daily for 14 days.
In addition, the antitumor effect of poziotinib (an irreversible inhibitor of EGFR, HER2, and HER4) was also evaluated using this model.

[3] = pharmacokinetics after multiple oral administration for 7 days; format: in vivo, male nude mice; conditions: for AUC(0-t): male, nude, mouse, plasma, read-out: AUC0-24
Method: Compound (1) was orally administered. The concentrations of Compound (1) were quantified using LC-MS/MS for the PK studies. ^13C-labeled Compound (1) was used as an internal standard.
Pharmacokinetics in nude mice after multiple oral administration for 7 days. Plasma concentration profiles and PK parameters of Compound (1) on Day 7 were determined in male nude mice after once daily oral administrations for 7 days at doses of 6.25, 12.5, and 25 mg/kg (FIGS. 5A and 5B, and Table 5). The Cmax, AUClast, and AUC0-24 values increased in a dose-dependent manner.

BCRP = test system: T1, BCRP; assay: substrate susceptibility on human BCRP, bidirectional transcellular transport, BCRP/MDCK II cells; format: in vitro ADME; conditions: human, with Ko143 10 μmol/L; read-out: net flux ratio
T1 construct: expressed in transfected cells; host or cells: MDCK II (canine kidney) cells expressing human BCRP; parent MDCK II as control
Method: (§3) Substrate susceptibility of Compound (1) on human BCRP. Time-dependence of the bidirectional transcellular transport of 0.3, 0.5, 1, 3, and 30 μmol/L Compound (1) across human BCRP/Madin-Darby canine kidney II (MDCK II) cells and parent/MDCK II cells was analyzed.

human BCRP [4] = test system: T2, human BCRP; assay: as above; format: in vitro ADME; conditions: human
T2 construct: expressed in transfected cells; host or cells: MDCK II (canine kidney) cells expressing human BCRP; parent MDCK II as control
Method: as §3

human BCRP [5] = molecular target: T3, human BCRP (Homo sapiens, UniProt Q9UNQ0); assay: inhibitory effect on human BCRP, bidirectional transport of [^3H]prazosin
T3 sequence (Q9UNQ0 1-655): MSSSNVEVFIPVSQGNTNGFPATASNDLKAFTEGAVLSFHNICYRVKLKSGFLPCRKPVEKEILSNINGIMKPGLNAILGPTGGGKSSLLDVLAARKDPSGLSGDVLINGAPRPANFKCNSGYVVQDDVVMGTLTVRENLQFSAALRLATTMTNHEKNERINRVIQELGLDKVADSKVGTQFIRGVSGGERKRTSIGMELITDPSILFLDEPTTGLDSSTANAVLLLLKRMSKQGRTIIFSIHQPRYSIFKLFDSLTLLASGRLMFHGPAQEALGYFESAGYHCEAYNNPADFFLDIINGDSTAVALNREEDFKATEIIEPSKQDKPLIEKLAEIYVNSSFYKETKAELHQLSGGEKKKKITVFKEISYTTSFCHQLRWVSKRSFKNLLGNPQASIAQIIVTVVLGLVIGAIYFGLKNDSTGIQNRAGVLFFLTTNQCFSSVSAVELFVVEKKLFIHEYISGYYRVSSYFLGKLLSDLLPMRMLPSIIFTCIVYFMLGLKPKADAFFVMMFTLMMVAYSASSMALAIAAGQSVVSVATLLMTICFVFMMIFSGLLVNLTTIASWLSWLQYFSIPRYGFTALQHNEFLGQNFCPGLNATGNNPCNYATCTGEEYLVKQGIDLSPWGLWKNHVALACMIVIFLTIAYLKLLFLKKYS

[6] = Day 7, once daily oral 6.25 mg/kg for 7 days
[7] = Day 7, once daily oral 12.5 mg/kg for 7 days
[8] = Day 7, once daily oral 25 mg/kg for 7 days

Sequence of HER2 (P04626 23-1255): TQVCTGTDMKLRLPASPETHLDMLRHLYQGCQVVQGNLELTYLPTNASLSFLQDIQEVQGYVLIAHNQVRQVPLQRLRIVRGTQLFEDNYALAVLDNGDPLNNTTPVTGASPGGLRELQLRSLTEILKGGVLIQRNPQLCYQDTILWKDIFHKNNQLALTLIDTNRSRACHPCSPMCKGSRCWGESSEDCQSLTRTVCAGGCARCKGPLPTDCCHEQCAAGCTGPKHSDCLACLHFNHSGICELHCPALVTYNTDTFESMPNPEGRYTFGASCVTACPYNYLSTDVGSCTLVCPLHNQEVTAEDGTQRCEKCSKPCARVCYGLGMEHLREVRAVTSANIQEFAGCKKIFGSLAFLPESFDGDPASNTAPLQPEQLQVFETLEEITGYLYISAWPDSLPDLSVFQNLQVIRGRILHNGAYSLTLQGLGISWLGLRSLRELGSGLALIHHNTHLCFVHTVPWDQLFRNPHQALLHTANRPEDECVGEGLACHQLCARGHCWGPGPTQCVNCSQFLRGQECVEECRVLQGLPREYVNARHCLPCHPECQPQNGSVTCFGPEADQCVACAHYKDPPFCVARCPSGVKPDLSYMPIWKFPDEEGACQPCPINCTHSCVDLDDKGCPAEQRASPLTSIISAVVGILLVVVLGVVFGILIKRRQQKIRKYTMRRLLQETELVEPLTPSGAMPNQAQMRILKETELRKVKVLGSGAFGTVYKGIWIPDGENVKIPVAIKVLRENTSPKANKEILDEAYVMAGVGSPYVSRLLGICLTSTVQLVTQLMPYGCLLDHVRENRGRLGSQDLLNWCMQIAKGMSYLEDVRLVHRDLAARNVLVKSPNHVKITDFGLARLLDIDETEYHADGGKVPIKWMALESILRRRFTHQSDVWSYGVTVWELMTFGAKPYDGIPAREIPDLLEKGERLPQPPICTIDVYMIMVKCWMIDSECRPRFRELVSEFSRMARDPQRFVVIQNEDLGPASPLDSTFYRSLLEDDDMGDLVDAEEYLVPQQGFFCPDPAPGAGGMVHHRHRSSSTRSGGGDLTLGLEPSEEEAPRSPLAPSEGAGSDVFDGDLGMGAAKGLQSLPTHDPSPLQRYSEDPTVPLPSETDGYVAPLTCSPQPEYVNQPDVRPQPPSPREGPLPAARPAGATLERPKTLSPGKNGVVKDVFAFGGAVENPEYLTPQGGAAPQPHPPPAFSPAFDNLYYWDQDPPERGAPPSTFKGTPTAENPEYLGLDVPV

Q: For `C=CC(=O)N1C[C@H](n2c(C#CC3CC3)c(C(=O)N[C@H](C)c3ccccc3)c3c(N)ncnc32)C[C@@H]1C` [Compound (1), 7-((3R,5S)-1-acryloyl-5-methylpyrrolidin-3-yl)-4-amino-6-(cyclopropylethynyl)-N—((R)-1-phenylethyl)-7H-pyrrolo[2,3-d]pyrimidine-5-carboxamide], which IC50 (HER2) is on record?
A: Its IC50 is 5.6 ± 0.3 nM.

Q: What about the IC50 (HER2 A775_G776insYVMA) of the same molecule?
A: Its IC50 is 1 ± 0.2 nM.

Q: And the IC50 (HER2 V777L)?
A: The IC50 was 2.1 ± 0.8 nM.

Q: What about the GI50 [1] of the same molecule?
A: The GI50 was 23.3 ± 1.4 nM.

Q: What about the GI50 (A-431 cells) of the same molecule?
A: Its GI50 is 8.64 ± 1.07 nM.

Q: And the GI50 (HCC827 cells)?
A: The GI50 was 2.13 ± 0.61 nM.

Q: And the GI50 (NCI-H1975 cells)?
A: The GI50 was 37.5 ± 20.4 nM.

Q: What about the “T/C ratio of the mean tumor volume” value ([2]; 7.8 mg/kg/day orally once daily 14 days) of the same molecule?
A: Its value is 52.8%.

Q: What about the “T/C ratio of the mean tumor volume” value ([2]; 12.5 mg/kg/day orally once daily 14 days) of the same molecule?
A: The value was 17.4%.

Q: And the “T/C ratio of the mean tumor volume” value ([2]; 20.0 mg/kg/day orally once daily 14 days)?
A: Its value is 8.7%.

Q: And the “toxicity (deaths, clinical signs, body weight loss ≥20%)” value ([2]; 14 days treatment)?
A: The value was “acceptable toxicity”.

Q: What about the AUClast [3, 6] of the same molecule?
A: Its AUClast is 972 ± 239 ng·h/mL.

Q: What about the Cmax [3, 6] of the same molecule?
A: The Cmax was 1170 ± 300 ng/mL.

Q: What about the Tmax [3, 6] of the same molecule?
A: The Tmax was 15 ± 0 min.

Q: And the AUC0-24 [3, 7]?
A: Its AUC0-24 is 2830 ± 400 ng·h/mL.

Q: And the AUClast [3, 7]?
A: Its AUClast is 2800 ± 460 ng·h/mL.

Q: What about the Cmax [3, 7] of the same molecule?
A: The Cmax was 2040 ± 230 ng/mL.

Q: And the Tmax [3, 7]?
A: The Tmax was 19.8 ± 8.4 min.

Q: And the AUClast [3, 8]?
A: Its AUClast is 6180 ± 310 ng·h/mL.

Q: And the Cmax [3, 8]?
A: Its Cmax is 3710 ± 360 ng/mL.

Q: What about the Tmax [3, 8] of the same molecule?
A: The Tmax was 25.2 ± 8.4 min.

Q: What about the AUC(0-t) [3, 6] of the same molecule?
A: Its AUC(0-t) is 1030 ± 280 ng·h/mL.

Q: What about the AUC(0-t) [3, 8] of the same molecule?
A: The AUC(0-t) was 6400 ± 430 ng·h/mL.

Q: And the efflux ratio at 2 h (BCRP)?
A: Its efflux ratio at 2 h is 2 ± 0.5.

Q: What about the efflux ratio at 3 h (BCRP) of the same molecule?
A: The efflux ratio at 3 h was 1.4 ± 0.2.

Q: What about the efflux ratio at 2 h, 0.5 μmol/L (human BCRP [4]; with Ko143 10 μmol/L, read-out: net flux ratio) of the same molecule?
A: The efflux ratio at 2 h, 0.5 μmol/L was 1.2 ± 0.3.

Q: What about the efflux ratio at 4 h, 0.3 μmol/L (human BCRP [4]; with Ko143 (concentration not stated for this arm), read-out: net flux ratio) of the same molecule?
A: Its efflux ratio at 4 h, 0.3 μmol/L is 1.1 ± 0.2.

Q: And the efflux ratio at 0.3 μmol/L (human BCRP [4]; 0.3 μmol/L Compound (1), 3 and 4 hours, read-out: flux ratios in parent and human BCRP/MDCK II cells)?
A: Its efflux ratio at 0.3 μmol/L is greater than 2.

Q: And the IC50 (human BCRP [5])?
A: Its IC50 is 332 nM.
